The record followed here is patent US8426587B2, “Haloallylamine inhibitors of SSAO/VAP-1 and uses therefor” (Pharmaxis Ltd., priority 2007, dated 2013).

Structures can show the parent of a compound that is named as a salt. Where two headings read alike, the source gives them in different places.

One test concerns the target T1, SSAO/VAP-1 (Mus musculus, UniProt O70423).
T1 construct: the genital fat was excised and frozen; The tissue was homogenized; from tissue; host or cells: genital fat of BALB/C mice
T1 sequence (O70423 1-765): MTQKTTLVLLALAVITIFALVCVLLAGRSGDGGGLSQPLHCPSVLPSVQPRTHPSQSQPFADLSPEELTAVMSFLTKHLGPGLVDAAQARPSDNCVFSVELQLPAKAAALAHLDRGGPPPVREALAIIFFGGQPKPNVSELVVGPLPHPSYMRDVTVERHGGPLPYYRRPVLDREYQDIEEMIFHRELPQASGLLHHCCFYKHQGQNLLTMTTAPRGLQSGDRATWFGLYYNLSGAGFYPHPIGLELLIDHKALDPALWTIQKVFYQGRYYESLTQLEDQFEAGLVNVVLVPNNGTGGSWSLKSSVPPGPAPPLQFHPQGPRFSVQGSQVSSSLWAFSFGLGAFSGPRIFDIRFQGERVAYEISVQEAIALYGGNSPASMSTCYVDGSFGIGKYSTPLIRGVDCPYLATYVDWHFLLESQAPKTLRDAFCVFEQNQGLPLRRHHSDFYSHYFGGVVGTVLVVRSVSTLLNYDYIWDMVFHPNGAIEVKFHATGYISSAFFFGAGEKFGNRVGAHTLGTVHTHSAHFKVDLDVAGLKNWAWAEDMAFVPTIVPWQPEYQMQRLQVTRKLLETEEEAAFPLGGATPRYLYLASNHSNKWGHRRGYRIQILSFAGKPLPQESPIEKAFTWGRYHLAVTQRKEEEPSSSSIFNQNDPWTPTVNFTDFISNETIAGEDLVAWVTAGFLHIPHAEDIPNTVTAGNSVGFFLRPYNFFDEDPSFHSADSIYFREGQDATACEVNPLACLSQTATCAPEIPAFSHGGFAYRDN
Briefly: In vivo inhibition of SSAO/VAP-1 activity in mouse genital fat. The arrangement: species or system BALB/C mice. Particulars: ip. How it is done:
In vivo inhibition was assessed in mouse genital fat, a tissue with high SSAO/VAP-1 expression. 10 BALB/C mice (5 males and 5 females) were administered 0 mg/kg, 10 mg/kg, 30 mg/kg or 100 mg/kg SSAO/VAP-1 inhibitor by intraperitoneal injection. Two hours after administration the mice were sacrificed and the genital fat was excised and frozen. The tissue was homogenized in 0.01 M sodium phosphate buffer pH 7.4 (10 mL/g) and used to measure SSAO activity using Amplex® Red. ED50 was estimated Using Graphpad Prism software.

The target of another test is T2, Human SSAO/VAP-1 (Homo sapiens, UniProt Q16853).
T2 sequence (Q16853 1-763): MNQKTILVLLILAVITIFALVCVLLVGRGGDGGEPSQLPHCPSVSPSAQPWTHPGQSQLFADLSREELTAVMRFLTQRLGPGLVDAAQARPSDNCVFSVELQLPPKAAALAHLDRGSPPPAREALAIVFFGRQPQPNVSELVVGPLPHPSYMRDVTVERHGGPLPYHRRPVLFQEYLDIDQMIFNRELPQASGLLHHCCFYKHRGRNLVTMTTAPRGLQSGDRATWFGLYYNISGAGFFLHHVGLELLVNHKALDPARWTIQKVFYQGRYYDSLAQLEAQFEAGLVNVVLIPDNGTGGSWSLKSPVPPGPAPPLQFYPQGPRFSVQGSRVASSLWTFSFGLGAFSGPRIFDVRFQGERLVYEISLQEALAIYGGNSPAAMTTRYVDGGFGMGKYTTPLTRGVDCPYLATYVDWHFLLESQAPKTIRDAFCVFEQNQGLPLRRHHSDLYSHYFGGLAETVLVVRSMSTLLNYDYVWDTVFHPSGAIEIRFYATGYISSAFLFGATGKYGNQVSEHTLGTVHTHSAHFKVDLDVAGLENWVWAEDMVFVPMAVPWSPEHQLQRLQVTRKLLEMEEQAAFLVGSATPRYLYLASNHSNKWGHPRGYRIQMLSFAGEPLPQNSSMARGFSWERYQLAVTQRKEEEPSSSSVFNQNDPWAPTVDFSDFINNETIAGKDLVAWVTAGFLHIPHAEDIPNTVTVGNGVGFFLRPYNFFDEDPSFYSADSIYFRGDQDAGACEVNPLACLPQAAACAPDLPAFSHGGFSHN
Briefly: Inhibition of amine oxidase activity of purified human SSAO/VAP-1 (Amplex Red). It counts as biochemical. Conditions: purified human SSAO, 300 μM benzylamine. How it is done:
To measure the SSAO activity, adipocyte homogenate (0.5 mg/mL) or adipocytes (adhering cells) containing 0.5 mM pargyline, or purified human SSAO was incubated in 0.1 M sodium phosphate buffer pH 7.4 with varying concentrations of test compounds for 30 min at 37° C. The homogenate was then incubated at 37° C. with 60 μM Amplex® Red, 0.75 U/mL HRP and 40 μM benzylamine (mouse SSAO) or 300 μM benzylamine (human SSAO) and the formation of resorufin was measured (excitation range 530-560 nm and emission at 590 nm) every 10 min in either a Tecan Infinite 200 or a BMG plate reader. The IC50 values were estimated using Graphpad Prism software. The IC50 is an estimation of the concentration of the test compound to inhibit the amine oxidase activity of SSAO/VAP-1 by 50%. The IC50 values of certain invention compounds are included in Table 1.

Where [1] appears, read: female BALB/C mice, intraperitoneal, genital fat SSAO activity two hours after administration, read-out: Female Mice ED50 [ip].
Where [2] appears, read: male BALB/C mice, intraperitoneal, genital fat SSAO activity two hours after administration, read-out: Male Mice ED50 [ip].

As usually defined, the ED50 is the dose at which the effect has come halfway, by size or by number of responders. For orientation: IC50 means the point on the concentration scale where inhibition reaches its midpoint. Low readings indicate greater potency in that assay, high ones weaker potency in that assay. Regarding `Cc1nc2cc(OC/C(F)=C\CN)ccc2s1.Cl` [(E)-3-Fluoro-4-(2-methylbenzo[d]thiazol-5-yloxy)but-2-en-1-amine hydrochloride], the results for the 50% effective dose (ED50) on SSAO/VAP-1 (setting [1]) and on SSAO/VAP-1 (setting [2]) were under 100 mg/kg and under 50 mg/kg, respectively. Besides, the IC50 against Human SSAO/VAP-1 (30 min at 37° C. preincubation) was under 1 µM.
The matching figures for `CS(=O)(=O)c1ccc(OC/C(F)=C\CN)cc1.Cl` [(E)-3-Fluoro-4-(4-(methylsulfonyl)phenoxy)but-2-en-1-amine hydrochloride]: under 300 mg/kg, under 100 mg/kg and under 1 µM.
As to `NC/C=C(/F)COc1ccc(C(=O)NC2CCCCC2)cc1` [(E)-4-(4-amino-2-fluorobut-2-enyloxy)-N-cyclohexylbenzamide hydrochloride], the ED50 on SSAO/VAP-1 (read-out: Female Mice ED50 [ip]) and at SSAO/VAP-1 (read-out: Male Mice ED50 [ip]) was under 50 mg/kg each time. The compound further showed a concentration for half-maximal inhibition (IC50) against Human SSAO/VAP-1 (30 min at 37° C. preincubation) of under 1 µM.
`C[C@H](NS(=O)(=O)c1ccc(OC/C(F)=C\CN)cc1)c1ccccc1.Cl` [(S,E)-4-(4-Amino-2-fluorobut-2-enyloxy)-N-(1-phenylethyl)benzenesulfonamide]: the 50% effective dose (ED50) at SSAO/VAP-1 (setting [1]) and at SSAO/VAP-1 (setting [2]) was under 50 mg/kg throughout. The IC50 at Human SSAO/VAP-1 (30 min at 37° C. preincubation) was under 1 µM.
On to `NC/C(=C/F)CCc1ccc(F)cc1` [Mofegiline, reference compound], for which the median effective dose (ED50) at SSAO/VAP-1 (setting [1]) and on SSAO/VAP-1 (setting [2]) was under 1 mg/kg throughout. The IC50 on Human SSAO/VAP-1 turned out to be 0.021 µM.
